Patent publication EP1591123A1, “USES OF NARINGENIN, NARINGIN AND SALTS THEREOF AS EXPECTORANTS IN THE TREATMENT OF COUGH, AND COMPOSITIONS THEREOF” (Su, Wei-wei, priority 2003, dated 2004)
Counter-ions that a name gives are not always drawn.

System: mice
Assay: Dispel phlegm test of Naringin, Phenol Red excretion in trachea (Example 29)
Format: in vivo
Settings: for Dispel phlegm ratio: group given drug / blank control group x 100%; for Excretion quantity of Phenol Red / Rectified excretion quantity of Phenol Red: mice, oral, X±S; for Rectified excretion quantity of Phenol Red: excretion quantity / weight of animal
Description: 1. […] Every group was 10 animals. Eight group were set including negative control group, positive control group, high dose group of Naringin, middle dose group of Naringin, low dose group of Naringin, high dose group of sodium salt of Naringin, middle dose group of sodium salt of Naringin, low dose group of sodium salt of Naringin. […]
• 1) Blank control group: physiological saline, 0.9% NaCl; • 2) Positive control group: 0.2g Tankejing was dissolve into 10 ml physiological saline and the sample concentration was 20 mg/ml to obtain the solution for positive control. • 3) low dose group of Naringin: 0.5 mg/ml solution of Naringin was prepared by weighting out the appropriate amount of 5 mg Naringin and dissolving it by ultrasonication in 10 ml physiological saline. • 4) middle dose group of Naringin: 1.5 mg/ml solution of Naringin was prepared by weighting out the appropriate amount of 15 mg Naringin and dissolving it by ultrasonication in 10 ml physiological saline. • 5) high dose group of Naringin: 4.5 mg/ml solution of Naringin was prepared by weighting out the appropriate amount of 45 mg Naringin and dissolving it by ultrasonication in 10 ml physiological saline. • 6) low dose group of sodium salt of Naringin: 0.5 mg/ml solution of sodium salt of Naringin was prepared by weighting out the appropriate amount of 5 mg sodium salt of Naringin and dissolving it by ultrasonication in 10 ml physiological saline. • 7) middle dose group of sodium salt of Naringin: 1.5 mg/ml solution of sodium salt of Naringin was prepared by weighting out the appropriate amount of 15 mg sodium salt of Naringin and dissolving it by ultrasonication in 10 ml physiological saline. • 8) high dose group of sodium salt of Naringin: 4.5 mg/ml solution of sodium salt of Naringin was prepared by weighting out the appropriate amount of 45 mg sodium salt of Naringin and dissolving it by ultrasonication in 10 ml physiological saline.
The calibration curve was calculated by concentration of Phenol Red as y-axis and OD value as x-axis. And the excretion account of Phenol Red in mice was quantitated by calibration curve. • 2) Animals were fasted for 12 hr before dosing. • 3) Animals were oral administered with labeled number, each animal was administered with 3 min and each group was accomplished in 30 min. • 4) After administered 30 min, every animal was injected 2 ml 5% Phenol Red solution via celiac injection. The time of every animal was 3 min. • 5): Every animal was executed with 3 min interval after celiac injection 30 min, and animal trachea was peeled off with forceps after neck skin sniped, which was riveted on operating table. • 6): plasma and Phenol Red adhered to trachea ektexine was sweeped by 0.9% NaCl solution with an injector. And filter paper was used to blot up the solution. • 7): Scissors cut down the animal trachea including thyroid cartilage and trachea back-end. • 8): The trachea was set in test tube with 1.5 ml 5% NaHCO3. • 9): The experiment of every animal was completed in 3 min. […] X indicates OD value; Y indicates excretion account of Phenol Red. • 14): Rectified excretion account of Phenol Red was calculated by account of Phenol Red and weight of animal. Statistical significance of the data was determined by Student's t-test with SPSS 8.0. Rectified excretion account of Phenol Red= Account of Phenol Red (ng) / weight of animal (kg).

| SMILES | Dispel phlegm ratio (5 mg/kg) [%] | Dispel phlegm ratio (15 mg/kg) [%] | Dispel phlegm ratio (45 mg/kg) [%] | Excretion quantity of Phenol Red (5 mg/kg) [ng] | Rectified excretion quantity of Phenol Red (5 mg/kg) [ng/kg] | Excretion quantity of Phenol Red (15 mg/kg) [ng] | Rectified excretion quantity of Phenol Red (15 mg/kg) [ng/kg] | Excretion quantity of Phenol Red (45 mg/kg) [ng] | Rectified excretion quantity of Phenol Red (45 mg/kg) [ng/kg] | dispel phlegm effect (high dose group compared to positive control group of Tankejing) | exudates increase of mice trachea (three doses (low, middle, high), versus negative control group) |
| --- | --- | --- | --- | --- | --- | --- | --- | --- | --- | --- | --- |
| C[C@@H]1O[C@@H](O[C@H]2[C@H](Oc3cc(O)c4c(c3)O[C@H](c3ccc(O)cc3)CC4=O)O[C@H](CO)[C@@H](O)[C@@H]2O)[C@H](O)[C@H](O)[C@H]1O [sodium salt of Naringin] | 169.37 | 189.65 | 432.71 | 0.5250 ± 0.1265 | 26.1805 ± 6.9069 | 0.5748 ± 0.1417 | 29.3153 ± 7.7189 | 1.3115 ± 0.3232 | 66.8867 ± 17.6117 |  |  |
| C[C@@H]1O[C@@H](O[C@H]2[C@H](Oc3cc(O)c4c(c3)O[C@H](c3ccc(O)cc3)CC4=O)O[C@H](CO)[C@@H](O)[C@@H]2O)[C@H](O)[C@H](O)[C@H]1O [Naringin, 4', 5', 7-trihydroxyflavanone-7-rhamnoneglucoside] | 159.02 | 173.12 | 416.72 | 0.4914 ± 0.2215 | 25.5811 ± 11.8338 | 0.5296 ± 0.2195 | 26.7597 ± 13.1502 | 1.1488 ± 0.2431 | 64.4162 ± 18.7239 | statistical better than Tankejing | statistical significance stimulate the exudates increase of mice trachea |
